Source: patent US20250163043A1 (TRANSTHERA SCIENCES (NANJING), INC., priority 2021, published 2025)

Key:
Type in all cases: biochemical
[1] = molecular target: CDK9/CycT1 (Homo sapiens, UniProt P50750); test: ADP-Glo kinase assay on CDK enzymatic activity, CDK9/CycT1; settings: 10 concentrations from 10 μM, 4-fold, 60 min room temperature
In short: (§1)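 Steps: compound (10 μM top, 4-fold series) plus kinase, 10 min RT; add substrate/ATP mix, 60 min RT; ADP-Glo reagent 40 min; detection reagent 40 min; read luminescence. Inhibition referenced to AZD4573 (1 μM) and DMSO vehicle; IC50 by nonlinear fit.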

[2] = molecular target: CDK1/CycE1 (Homo sapiens, UniProt P06493); test: ADP-Glo kinase assay on CDK enzymatic activity, CDK1/CycE1; settings: ADP-Glo; 10 concentrations from 10 μM, 4-fold; 60 min room temperature; read-out: CDK1/CycE1/nM (IC50)
Sequence of CDK1/CycE1 (P06493 whole entry, species assumed): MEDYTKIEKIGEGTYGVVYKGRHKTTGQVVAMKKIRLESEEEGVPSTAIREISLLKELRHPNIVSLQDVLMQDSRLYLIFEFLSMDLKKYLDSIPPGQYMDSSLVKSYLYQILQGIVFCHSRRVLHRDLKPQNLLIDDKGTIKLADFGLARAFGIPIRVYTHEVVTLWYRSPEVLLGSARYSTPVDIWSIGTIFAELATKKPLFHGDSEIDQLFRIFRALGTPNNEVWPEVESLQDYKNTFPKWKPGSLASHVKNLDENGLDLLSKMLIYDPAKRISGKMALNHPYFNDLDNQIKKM
Sequence of CDK1/CycE1 (P24864 whole entry partner, species assumed): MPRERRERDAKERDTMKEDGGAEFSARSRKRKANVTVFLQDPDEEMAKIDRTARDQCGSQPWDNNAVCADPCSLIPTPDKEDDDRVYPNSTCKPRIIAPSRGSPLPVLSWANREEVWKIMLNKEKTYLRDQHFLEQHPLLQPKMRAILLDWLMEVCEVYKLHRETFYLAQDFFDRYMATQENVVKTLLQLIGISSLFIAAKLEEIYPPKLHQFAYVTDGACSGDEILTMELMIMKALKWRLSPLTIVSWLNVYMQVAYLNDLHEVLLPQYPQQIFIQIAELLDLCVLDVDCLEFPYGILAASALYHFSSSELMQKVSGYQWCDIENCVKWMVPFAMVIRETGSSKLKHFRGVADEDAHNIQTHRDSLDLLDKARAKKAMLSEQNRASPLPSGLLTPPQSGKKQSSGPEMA
In short: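 Compounds in 10-point 4-fold dilutions from 10 μM final, preincubated 10 min with kinase, then substrate/ATP added; 60 min reaction at room temperature. ADP-Glo luminescence read.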

[3] = molecular target: CDK2/CycA2 (Homo sapiens, UniProt P24941); test: ADP-Glo kinase assay on CDK enzymatic activity, CDK2/CycA2; settings: 10 concentrations from 10 μM, 4-fold, 60 min room temperature
In short: as §1

[4] = molecular target: CDK3/CycE1 (Homo sapiens, UniProt Q00526); test: ADP-Glo kinase assay on CDK enzymatic activity, CDK3/CycE1; settings: 10 concentrations from 10 μM, 4-fold, 60 min room temperature
Sequence of CDK3/CycE1 (Q00526 whole entry, species assumed): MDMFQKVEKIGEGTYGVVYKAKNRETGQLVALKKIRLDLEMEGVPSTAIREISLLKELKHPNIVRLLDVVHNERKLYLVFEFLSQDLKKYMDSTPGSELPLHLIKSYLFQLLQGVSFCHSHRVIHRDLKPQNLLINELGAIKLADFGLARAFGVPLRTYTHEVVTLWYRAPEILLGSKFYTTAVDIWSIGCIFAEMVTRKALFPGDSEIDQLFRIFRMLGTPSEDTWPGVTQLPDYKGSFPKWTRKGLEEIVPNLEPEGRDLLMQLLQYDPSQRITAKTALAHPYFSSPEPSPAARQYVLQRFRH
Sequence of CDK3/CycE1 (P24864 whole entry partner, species assumed): as the sequence (P24864 whole entry partner, species assumed) above
Source text: (§2) Test samples: the compounds of the present invention, having structures shown above.
(§3) ADP-Glo Kinase Assay (ADP-Glo kinase kit), DMSO (dimethyl sulfoxide), CDK9/CycT1 (cyclin-dependent kinase 9/cyclin T1), CDK tide (cyclin-dependent kinase substrate peptide fragments), CDK1/CycE1 (cyclin-dependent kinase 1/cyclin E1), CDK2/CycA2 (cyclin-dependent kinase 2/cyclin A2), CDK3/CycE1 (cyclin-dependent kinase 3/cyclin E1), CDK4/CycD3 (cyclin-dependent kinase 4/cyclin D3), CDK5/p25NCK (cyclin-dependent kinase 5/p25), and AZD 4573.
(§4) A 384-well white plate, a 96-well plate, a microplate oscillator, a centrifuge, and a microplate reader.
(§5) The compounds were dissolved in DMSO and diluted 4-fold in the 96-well plate to obtain stock solutions with 10 concentration gradients, and added into a 384-well plate system to obtain a series of 10 concentration gradients of compound solutions with final concentrations of 10 μM starting and 4-fold gradient decreasing. 1 μM AZD4573 was used as compound positive control (PC) and 0.5% DMSO as solvent vehicle control (VC), ten duplicated wells each for PC and VC.
(§6) 1 μL of compound solution and 2 μL of 2× kinase solution were transferred to each well, and the plate was centrifuged at 1000 g for 30 s and left at room temperature for 10 min. A mixture of 2× substrate and ATP was prepared in 1× kinase buffer. The reaction was started after adding 2 μL of substrate and ATP into the plate. The plate was centrifuged at 1000 g for 30 s. The assay plate was closed and left at room temperature for 60 min. The reaction system was added with 4 μL of ADP Glo reagent, centrifuged at 1000 rpm for 1 min, and incubated at room temperature for 40 min. The reaction system was added with 8 μL of kinase assay reagent, centrifuged at 1000 rpm for 1 min and incubated at room temperature for 40 min. The […] was read on Biotek.
(§7) The inhibition rate was calculated according to the following formula: […]
(§8) Lumcmpd: compound fluorescence reading; Lumpositive: average value of the fluorescence reading of positive compound control; Lumvehicle: average value of the fluorescence reading of solvent vehicle control.
(§9) IC50 values were fitted using GraphPad 7.0 based on inhibition rates of compounds at different concentrations.

[5] = molecular target: CDK5/p25NCK (Homo sapiens, UniProt Q00535); test: ADP-Glo kinase assay on CDK enzymatic activity, CDK5/p25NCK; settings: 10 concentrations from 10 μM, 4-fold, 60 min room temperature
Sequence of CDK5/p25NCK (Q00535 whole entry, species assumed): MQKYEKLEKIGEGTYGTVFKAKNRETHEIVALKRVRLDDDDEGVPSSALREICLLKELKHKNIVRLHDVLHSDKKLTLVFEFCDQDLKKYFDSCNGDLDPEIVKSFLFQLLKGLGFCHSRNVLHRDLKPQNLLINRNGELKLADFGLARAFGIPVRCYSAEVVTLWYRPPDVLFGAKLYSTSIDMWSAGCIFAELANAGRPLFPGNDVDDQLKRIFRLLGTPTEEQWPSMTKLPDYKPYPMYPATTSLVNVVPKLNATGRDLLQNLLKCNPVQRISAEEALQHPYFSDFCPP
Sequence of CDK5/p25NCK (Q15078 99-307 partner limits assumed, species assumed): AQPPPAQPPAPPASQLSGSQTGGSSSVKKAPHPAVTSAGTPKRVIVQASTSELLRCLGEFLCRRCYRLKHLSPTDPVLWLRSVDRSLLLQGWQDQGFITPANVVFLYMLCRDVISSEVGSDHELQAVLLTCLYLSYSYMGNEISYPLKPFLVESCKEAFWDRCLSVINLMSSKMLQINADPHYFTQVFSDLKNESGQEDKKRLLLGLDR
Source text: as §2, §3, §4, §5, §6, §7, §8, §9

Sequence of CDK9/CycT1 (P50750 whole entry): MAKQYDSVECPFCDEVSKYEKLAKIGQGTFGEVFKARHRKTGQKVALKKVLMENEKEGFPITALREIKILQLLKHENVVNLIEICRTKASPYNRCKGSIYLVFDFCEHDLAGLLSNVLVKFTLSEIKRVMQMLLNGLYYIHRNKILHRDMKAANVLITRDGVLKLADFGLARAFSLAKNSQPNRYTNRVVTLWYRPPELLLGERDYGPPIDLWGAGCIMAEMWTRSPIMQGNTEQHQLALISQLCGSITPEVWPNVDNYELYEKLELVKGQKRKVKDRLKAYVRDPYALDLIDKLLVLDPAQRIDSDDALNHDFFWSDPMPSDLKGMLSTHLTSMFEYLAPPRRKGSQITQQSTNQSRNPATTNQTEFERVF
Sequence of CDK9/CycT1 (O60563 whole entry partner): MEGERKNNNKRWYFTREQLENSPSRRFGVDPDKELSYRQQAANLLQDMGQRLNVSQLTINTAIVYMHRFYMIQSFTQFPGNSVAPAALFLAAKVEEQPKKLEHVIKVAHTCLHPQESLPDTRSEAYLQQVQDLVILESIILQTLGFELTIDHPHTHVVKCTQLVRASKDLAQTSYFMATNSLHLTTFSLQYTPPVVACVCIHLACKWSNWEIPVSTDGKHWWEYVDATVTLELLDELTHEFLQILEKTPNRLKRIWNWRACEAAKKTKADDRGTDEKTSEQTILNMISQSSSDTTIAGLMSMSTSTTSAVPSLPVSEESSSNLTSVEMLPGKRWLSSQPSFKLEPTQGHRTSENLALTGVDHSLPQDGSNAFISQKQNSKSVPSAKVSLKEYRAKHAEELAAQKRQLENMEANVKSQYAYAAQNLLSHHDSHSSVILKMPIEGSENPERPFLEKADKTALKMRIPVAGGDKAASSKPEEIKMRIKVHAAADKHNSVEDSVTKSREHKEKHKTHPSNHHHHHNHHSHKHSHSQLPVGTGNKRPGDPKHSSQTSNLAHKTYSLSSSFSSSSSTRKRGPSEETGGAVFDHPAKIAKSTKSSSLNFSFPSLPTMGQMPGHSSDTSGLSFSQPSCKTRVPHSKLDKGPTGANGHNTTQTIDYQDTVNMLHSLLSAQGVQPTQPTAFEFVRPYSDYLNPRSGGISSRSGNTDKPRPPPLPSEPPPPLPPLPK

Row | Structure (SMILES) | IC50 [1] [nM] | IC50 [2] [nM] | IC50 [3] [nM] | IC50 [4] [nM] | IC50 [5] [nM]
1 | N#Cc1cc2cnc(N[C@H]3CCCNC3)cc2c(N[C@H]2CCOC2)n1 [Compound 151, 7-(((S)-piperidin-3-yl)amino)-1-(((S)-tetrahydrofuran-3-yl)amino)-2,6-naphthyridine-3-carbonitrile] | 8 | 411 | 1290 | 832 | 4140
2 | CC(C)(C)Oc1nc(C#N)cc2cnc(N[C@H]3CCCNC3)cc12 [Compound 152, (S)-1-(tert-butoxy)-7-(piperidin-3-ylamino)-2,6-naphthyridine-3-carbonitrile] | 2 | 110 | 267 | 124 | 1000
3 | N#Cc1cc2cnc(N[C@H]3CCCNC3)cc2c(O[C@@H]2CCOC2)n1 [Compound 154, 7-(((S)-piperidin-3-yl)amino)-1-(((R)-tetrahydrofuran-3-yl)oxy)-2,6-naphthyridine-3-carbonitrile] | 5 | 1020 | 2320 | 371 | 3840
4 | N#Cc1cc2cnc(N[C@H]3CCCNC3)cc2c(NC2CC2)n1 [Compound 175, (S)-1-(cyclopropylamino)-7-(piperidin-3-ylamino)-2,6-naphthyridine-3-carbonitrile] | 3 | 234 | 489 | 1480 | 435
5 | CCNc1nc(C#N)cc2cnc(N[C@H]3CCCNC3)cc12 [Compound 186, (S)-1-(ethylamino)-7-(piperidin-3-ylamino)-2,6-naphthyridine-3-carbonitrile] | 3 | 336 | 352 | 915 | 176
6 | FC(F)c1cc2cnc(N[C@H]3CCCNC3)cc2c(O[C@@H]2CCOC2)n1 [Compound 202, 7-(difluoromethyl)-N—((S)-piperidin-3-yl)-5-(((R)-tetrahydrofuran-3-yl)oxy)-2,6-naphthyridin-3-amine] | 4 | 521 | 337 | 398 | 168
7 | CC1(Oc2nc(C#N)cc3cnc(N[C@H]4CCCNC4)cc23)CC1 [Compound 204, (S)-1-(1-methylcyclopropoxy)-7-(piperidin-3-amino)-2,6-naphthyridine-3-carbonitrile] | 2 | 903 | 1010 | 1410 | 523
8 | CC(C)(C)Nc1nc(C(F)F)cc2cnc(N[C@H]3CCCNC3)nc12 [Compound C1] | 2 | 7 | 21 | 7 | 17
9 | CC(C)(C)Nc1nc(C(F)F)cc2cnc(NC3CCNCC3)nc12 [Compound C2, N^8-(tert-butyl)-6-(difluoromethyl)-N^2-(piperidin-4-yl)pyrido[3,4-d]pyrimidine-2,8-diamine] | 4 | 48 | 48 | 53 | 465
10 | CC(C)Nc1nc(C#N)cc2cnc(N[C@@H]3CN4CCC3CC4)nc12 [Compound C45, (S)-8-(isopropylamino)-2-(quinuclidin-3-ylamino)pyrido[3,4-d]pyrimidine-6-carbonitrile] | 6 | 467 | 1310 | 340 | 7980
11 | CC(C)Nc1nc(C(F)(F)F)cc2cnc(N[C@H]3CCCNC3)nc12 [Compound C46, (S)—N^8-isopropyl-N^2-(piperidin-3-yl)-6-(trifluoromethyl)pyrido[3,4-d]pyrimidine-2,8-diamine] | 2 | 19 | 33 | 8 | 60

Other lines, results leading:

Row | IC50 [1] [nM] | IC50 [2] [nM] | IC50 [3] [nM] | IC50 [4] [nM] | IC50 [5] [nM] | Structure (SMILES)
12 | 2 | 90 | 146 | 28 | 195 | N#Cc1cc2cnc(N[C@H]3CCCNC3)cc2c(NC2CCC2)n1 [Compound 144, (S)-1-(cyclobutylamino)-7-(piperidin-3-ylamino)-2,6-naphthyridine-3-carbonitrile]
13 | 1 | 104 | 171 | 49 | 165 | CC1(Nc2nc(C#N)cc3cnc(N[C@H]4CCCNC4)cc23)CC1 [Compound 148, (S)-1-((1-methylcyclopropyl)amino)-7-(piperidin-3-ylamino)-2,6-naphthyridine-3-carbonitrile]
14 | 1 | 42 | 126 | 60 | 295 | CC(C)(C)Nc1nc(C#N)cc2cnc(N[C@H]3CCCNC3)cc12 [Compound 149, (S)-1-(tert-butylamino)-7-(piperidin-3-ylamino)-2,6-naphthyridine-3-carbonitrile]
15 | 2 | 608 | 450 | 281 | 1460 | N#Cc1cc2cnc(N[C@H]3CCCNC3)cc2c(N[C@@H]2CCOC2)n1 [Compound 150, 7-(((S)-piperidin-3-yl)amino)-1-(((R)-tetrahydrofuran-3-yl)amino)-2,6-naphthyridine-3-carbonitrile]
16 | 2 | 133 | 562 | 67 | 706 | CC(C)Oc1nc(C#N)cc2cnc(N[C@H]3CCCNC3)cc12 [Compound 153, (S)-1-(isopropoxy)-7-(piperidin-3-ylamino)-2,6-naphthyridine-3-carbonitrile]
17 | 1 | 163 | 125 | 990 | 96 | CCNc1nc(C#N)cc2cnc(N[C@H]3C[C@H](N)C3)cc12 [Compound 184, 7-(((trans)-3-aminocyclobutyl)amino)-1-(ethylamino)-2,6-naphthyridine-3-carbonitrile]
18 | 2 | 149 | 244 | 1100 | 263 | CCOc1nc(C(F)F)cc2cnc(N[C@H]3C[C@H](N)C3)cc12 [Compound 200, (trans)-N^1-(7-(difluoromethyl)-5-ethoxy-2,6-naphthyridin-3-yl)cyclobutane-1,3-diamine]
19 | 2 | 215 | 83 | 189 | 53 | FC(F)c1cc2cnc(N[C@H]3CCCNC3)cc2c(N[C@@H]2CCOC2)n1 [Compound 201, 3-(difluoromethyl)-N7—((S)-piperidin-3-yl)-N^1—((R)-tetrahydrofuran-3-yl)-2,6-naphthyridine-1,7-diamine]
